In BigSolDB 2.1:

O=C1C=CC(=O)O1
solubility (mole fraction)
Conditions | 278.15 K | 283.15 K | 288.15 K | 293.15 K | 298.15 K | 303.15 K | 308.15 K | 313.15 K | 318.15 K | 323.15 K
in DMF | 0.0297 | 0.0372 | 0.0466 | 0.0584 | 0.0707 | 0.087 | 0.104 | 0.125 | 0.15 | 0.176
in acetic acid | 0.0156 | 0.0216 | 0.0281 | 0.0369 | 0.0472 | 0.0605 | 0.0767 | 0.0962 | 0.119 | 0.146
in acetone | 0.00999 | 0.0136 | 0.0191 | 0.0264 | 0.0336 | 0.0453 | 0.0599 | 0.0768 | 0.0977 | 0.124
in acetonitrile | 0.012 | 0.0173 | 0.0232 | 0.0307 | 0.0408 | 0.0526 | 0.0682 | 0.0873 | 0.111 | 0.139
in ethyl acetate | 0.00906 | 0.0125 | 0.017 | 0.0219 | 0.0303 | 0.0398 | 0.0518 | 0.0665 | 0.0857 | 0.107
in isopropanol | 0.00617 | 0.00942 | 0.013 | 0.0178 | 0.0241 | 0.0321 | 0.043 | 0.0552 | 0.0712 | 0.0909
in methanol | 0.0211 | 0.0282 | 0.0359 | 0.0465 | 0.0582 | 0.0719 | 0.0886 | 0.109 | 0.132 | 0.159
in n-butanol | 0.00359 | 0.00539 | 0.00796 | 0.0116 | 0.0168 | 0.0236 | 0.033 | 0.0455 | 0.0618 | 0.0828
